How the values were obtained:
[1] = tested on: Dbp mRNA in whole blood; assay: Dbp mRNA in whole blood of db/db mice after three daily doses; format: in vivo, mouse; conditions: 100 mg/kg PO once daily for three days at ZT0, blood at ZT7.5
Method: For whole blood RNA studies, male db/db mice (9 weeks of age, The Jackson Laboratory, Bar Harbor, Me.) were used for the experiment with n=8 mice for each experimental group. […] On the final day at ZT7.5 (2:30 pm), animals were euthanized using CO2 asphyxiation, and the blood collected from the heart via cardiac puncture. The blood was placed in RNALater solution to 1.5 ml total volume. Total RNA was prepared using an Ambion Mouse RiboPure Blood RNA Isolation Kit AM1951 as follows. Samples were centrifuged for 3 minutes, discarding the supernatant. Two ml of lysis solution was added and vortexed, transferred to a 15 ml tube followed by the addition of microliters 3M Sodium Acetate. […]
RediPlate 96 RiboGreen RNA Quantification Kit (Invitrogen) RediPlate standard curve was prepared by transferring 20 μl reconstituted RNA standard to a RediPlate well reconstituted in 180 μl RediPlate TE buffer. […] After transferring 5 μl to RediPlate well reconstituted in 195 μl TE buffer and incubating 10 min. at RT, Fluorescence Intensity of wells with standards and samples were read in a Tecan M200 with Excitation set at 480 nm and Emission set at 520 nm with the gain set to ˜70%. […] A standard curve was generated in GraphPad Prism and sample readings (unknowns) are interpolated via linear regression analysis, and the RNA sample concentrations were calculated. […]

[2] = tested on: db/db mice; assay: 7 day dosing, glucose metabolism, insulin and compound levels in db/db mouse model of type II diabetes; format: in vivo; conditions: 50 mg/kg PO QD 7 days
Source text: Significance was accepted when p<0.05.

[3] = Pharmacokinetic analysis in SD rats (plasma); format: in vivo; conditions: male, po, rat, 50 mg/kg P.O., Table 4, read-out: Total Plasma AUC, AUC (0-last)
Method: Male SD rats (weighing 250-300 g, Charles River Laboratories) were used for the experiment with n=4 rats for each experimental group. […] Blood was collected at the following time points after administration: 15, 30, 60, 90 minutes, 3, 6, 12 and 24 hours. A pre-dose sample was also collected. Animals were cannulated by technical staff at Charles River, prior to delivery at Reset. Whole blood (0.3 ml) was collected from a cannula in the right common jugular vein at each time-point. The whole blood was transferred to an EDTA tube, and then centrifuged at 5400 rpm for 5 minutes at 4° C. The resultant plasma was frozen using dry ice and then stored at −80° C. until ready for assay. 0.9% Sodium Chloride (0.3 ml) was administered for fluid replenishment after each blood draw. 0.1 ml of Sodium Heparin (500 IU/ml) was used as a lock solution after the 12 hr time-point. Samples were assayed as described above.

AUC(0-t) [3]: 57900 ng·h/mL
Structure (SMILES): O=C1NCCN1CC(O)Cn1c2ccc(F)cc2c2cc(F)ccc21 (stereo not drawn) [Compound 72, 1-(3-(3,6-difluoro-9H-carbazol-9-yl)-2-hydroxypropyl)imidazolidin-2-one]
Dbp gene expression in whole blood [1]: statistically significant suppression
OGTT glucose vs vehicle control group [2]: lower than the vehicle control group

From patent US20150284362A1, “CARBAZOLE-CONTAINING AMIDES, CARBAMATES, AND UREAS AS CRYPTOCHROME MODULATORS” (ReSet Therapeutics, Inc., priority 2014, published 2015)
